# Tested on: HEK293 cells expressing ΔCR PrP
# Assay: cells
# Assay type: cell-based
# Parameters: Emax: dose or concentration left out as unconfirmed
# Settings: HEK293, 48 h, read-out: % RMAX: maximum rescuing effect, expressed as percentage of the effect of SM3(LD24) at the same concentration
row,Structure (SMILES),Emax
1,C=CCNC(=O)CN1c2ccc(Br)cc2-c2ccccc2S1(=O)=O [SM164],53.7%

# Same assay, conditions: HEK293, 48 h; 1 μM; read-out: % RMAX: maximum rescuing effect, expressed as percentage of the effect of SM3(LD24) at the same concentration
row,Structure (SMILES),Emax at 1 µM
1,O=C(CN1c2ccc(Br)cc2-c2ccccc2S1(=O)=O)NCc1ccco1 [SM167],56.6%
2,"COc1ccc2c(c1)-c1ccccc1S(=O)(=O)N2CC(=O)NC1CCCCC1 [SM225, N-Cyclohexyl-2-(9-methoxy-5,5-dioxido-6H-dibenzo[c,e][1,2]thiazin-6-yl)acetamide]",61.5%
3,CC(C)CNC(=O)CN1c2ccc(Br)cc2-c2ccccc2S1(=O)=O [SM174],56.3%
4,"O=C(CN1c2ccccc2-c2ccccc2S1(=O)=O)NC1CCCCC1 [SM7, 2-(5,5-dioxido-6H-dibenzo[c,e][1,2]thiazin-6-yl)-N-cyclohexylacetamide]",55.9%
5,"O=C(CN1c2ccc(F)c(Cl)c2-c2ccccc2S1(=O)=O)NC1CCCCC1 [SM337, 2-(10-chloro-9-fluoro-5,5-dioxido-6H-dibenzo[c,e][1,2]thiazin-6-yl)-N-cyclohexylacetamide]",109%
6,O=C(CN1c2ccc(Br)cc2-c2ccccc2S1(=O)=O)NCCN1CCOCC1 [SM178],44%
7,Cc1ccc2c(c1)-c1ccccc1S(=O)(=O)N2CC(=O)NC1CCCCC1 [SM181],59.4%
8,CC(C)(C)NC(=O)CN1c2ccc(Br)cc2-c2ccccc2S1(=O)=O [SM177],58.4%
9,"Cc1n[nH]c2c1N(CC(=O)NC1CCCCC1)S(=O)(=O)c1ccccc1-2 [SM879, N-cyclohexyl-2-(3-methyl-5,5-dioxidopyrazolo[4,3-c][1,2]benzothiazin-4 (1H)-yl)acetamide]",22.5%
10,"O=C(CN1c2cc(C(F)(F)F)ccc2-c2ccccc2S1(=O)=O)NC1CCCCC1 [SM338, N-cyclohexyl-2-[5,5-dioxido-8-(trifluoromethyl)-6H-dibenzo[c,e][1,2]thiazin-6-yl]acetamide]",87.6%
11,COCCNC(=O)CN1c2ccc(Br)cc2-c2ccccc2S1(=O)=O [SM170],36.9%
12,"O=C(CN1c2ccc(Cl)cc2-c2ccccc2S1(=O)=O)NC1CCCCC1 [SM254, 2-(9-chloro-5,5-dioxido-6H-dibenzo[c,e][1,2]thiazin-6-yl)-N-cyclohexylacetamide]",127%
13,"O=C(CN1c2cccc(C(F)(F)F)c2-c2ccccc2S1(=O)=O)NC1CCCCC1 [SM339, N-cyclohexyl-2-[5,5-dioxido-10-(trifluoromethyl)-6H-dibenzo[c,e][1,2]thiazin-6-yl]acetamide]",112%
14,"O=C(CN1c2cc(Cl)cc(Cl)c2-c2ccccc2S1(=O)=O)NC1CCCCC1 [SM587, N-cyclohexyl-2-(8,10-dichloro-5,5-dioxido-6H-dibenzo[c,e][1,2]thiazin-6-yl)acetamide]",168%
15,"O=C(CCN1c2ccc(Br)cc2-c2ccccc2S1(=O)=O)NC1CCCCC1 [SM10, 3-(9-Bromo-5,5-dioxido-6H-dibenzo[c,e][1,2]thiazin-6-yl)-N-cyclohexylpropanamide]",45.1%
16,O=C(CN1c2ccc(F)cc2-c2ccccc2S1(=O)=O)NC12CC3CC(CC(C3)C1)C2 [SM224],71.5%
17,CC(C)C(NC(=O)CN1c2ccc(Br)cc2-c2ccccc2S1(=O)=O)C(C)C [SM223],54.7%
18,O=C(CN1c2ccc(Br)cc2-c2ccccc2S1(=O)=O)Nc1cccnc1 [SM221],44.9%
19,"O=C(CN1c2ccc(O)cc2-c2ccccc2S1(=O)=O)NC1CCCCC1 [SM226, N-Cyclohexyl-2-(9-hydroxy-5,5-dioxido-6H-dibenzo[c,e][1,2]thiazin-6yl)acetamide]",37.9%
20,"CN(C(=O)CN1c2ccc(Br)cc2-c2ccccc2S1(=O)=O)C1CCCCC1 [SM8, 2-(9-Bromo-5,5-dioxido-6H-dibenzo[c,e][1,2]thiazin-6-yl)-N-cyclohexyl-N-methylacetamide]",46.2%

row,Structure (SMILES),Emax at 1 µM
1,Cc1cccc(NC(=O)CN2c3ccc(Br)cc3-c3ccccc3S2(=O)=O)c1 [SM171],102%
2,CC(C)NC(=O)CN1c2ccc(Br)cc2-c2ccccc2S1(=O)=O [SM169],59.1%
3,O=C(CN1c2ccc(Br)cc2-c2ccccc2S1(=O)=O)NCc1ccccn1 [SM176],37.9%
4,O=C(CN1c2ccc(Br)cc2-c2ccccc2S1(=O)=O)NCCCn1ccnc1 [SM220],51.7%
5,O=C(CN1c2ccc(Br)cc2-c2ccccc2S1(=O)=O)Nc1c(F)cccc1F [SM163],104%
6,"O=C(CN1c2ccc(Br)cc2-c2ccccc2S1(=O)=O)Nc1ccccc1 [SM6, 2-(9-bromo-5,5-dioxo-6H-dibenzo[c,e][1,2]thiazin-6 (5H)-yl)-N-phenylacetamide]",48.1%
7,CC(C)(C)NC(=O)CN1c2ccc(Cl)cc2-c2ccccc2S1(=O)=O [SM179],59.8%
8,"O=C(CN1c2cc(Cl)c(F)cc2-c2ccccc2S1(=O)=O)NC1CCCCC1 [SM336, 2-(8-chloro-9-fluoro-5,5-dioxido-6H-dibenzo[c,e][1,2]thiazin-6-yl)-N-cyclohexylacetamide]",119%
9,"O=C1C(N2c3ccc(Br)cc3-c3ccccc3S2(=O)=O)CCN1C1CCCCC1 (racemic) [SM11, (R,S)-3-(9-Bromo-5,5-dioxido-6H-dibenzo[c,e][1,2]thiazin-6-yl)-1-cyclohexylpyrrolidin-2-one]",43.9%
10,CC(=O)c1cccc(NC(=O)CN2c3ccc(Br)cc3-c3ccccc3S2(=O)=O)c1 [SM168],46.2%
11,O=C(CN1c2ccc(Br)cc2-c2ccccc2S1(=O)=O)NCc1ccccc1 [SM166],48.6%
12,CCC(C)NC(=O)CN1c2ccc(Br)cc2-c2ccccc2S1(=O)=O (stereo not shown) [SM175],66.2%
13,O=C(CN1c2ccc(Br)cc2-c2ccccc2S1(=O)=O)NC1CCCCCCC1 [SM162],71.8%
14,O=C(CN1c2ccc(Br)cc2-c2ccccc2S1(=O)=O)NC1CC1 [SM165],65.6%
15,"O=S1(=O)c2ccccc2-c2cc(Br)ccc2N1CCNC1CCCCC1 [SM9, N-[2-(9-bromo-5,5-dioxido-6H-dibenzo[c,e][1,2]thiazin-6-yl)ethyl]cyclohexanamine]",45.2%
16,"O=C(CN1c2ccc(Br)cc2-c2ccccc2S1(=O)=O)NC1CCCCCC1 [SM5, 2-(9-Bromo-5,5-dioxido-6H-dibenzo[c,e][1,2]thiazin-6-yl)-N-cycloheptylacetamide]",52.8%
17,"CSc1ccc2c(c1)-c1ccccc1S(=O)(=O)N2CC(=O)NC1CCCCC1 [SM340, N-cyclohexyl-2-[9-(methylthio)-5,5-dioxido-6H-dibenzo[c,e][1,2]thiazin-6-yl]acetamide]",23%
18,"O=C(CN1c2ccc(C(F)(F)F)cc2-c2ccccc2S1(=O)=O)Nc1ccnc(Cl)c1 [SM880, N-(2-chloropyridin-4-yl)-2-[5,5-dioxido-9-(trifluoromethyl)-6H-dibenzo[c,e][1,2]thiazin-6-yl]acetamide]",78.3%
19,"O=C(CN1c2cc(Cl)ccc2-c2ccccc2S1(=O)=O)NC1CCCCC1 [SM586, 2-(8-chloro-5,5-dioxido-6H-dibenzo[c,e][1,2]thiazin-6-yl)-N-cyclohexylacetamide]",181%

# Same assay, conditions: HEK293, read-out: IC50 (rescuing dose at 50%)
row,Structure (SMILES),IC50
1,"O=C(CN1c2ccc(F)c(Cl)c2-c2ccccc2S1(=O)=O)NC1CCCCC1 [SM337, 2-(10-chloro-9-fluoro-5,5-dioxido-6H-dibenzo[c,e][1,2]thiazin-6-yl)-N-cyclohexylacetamide]",970 nM
2,"O=C(CN1c2ccc(Cl)cc2-c2ccccc2S1(=O)=O)NC1CCCCC1 [SM254, 2-(9-chloro-5,5-dioxido-6H-dibenzo[c,e][1,2]thiazin-6-yl)-N-cyclohexylacetamide]",300 nM
3,"O=C(CN1c2cccc(C(F)(F)F)c2-c2ccccc2S1(=O)=O)NC1CCCCC1 [SM339, N-cyclohexyl-2-[5,5-dioxido-10-(trifluoromethyl)-6H-dibenzo[c,e][1,2]thiazin-6-yl]acetamide]",340 nM
4,"O=C(CN1c2cc(Cl)cc(Cl)c2-c2ccccc2S1(=O)=O)NC1CCCCC1 [SM587, N-cyclohexyl-2-(8,10-dichloro-5,5-dioxido-6H-dibenzo[c,e][1,2]thiazin-6-yl)acetamide]",600 nM
5,"O=C(CN1c2cc(Cl)c(F)cc2-c2ccccc2S1(=O)=O)NC1CCCCC1 [SM336, 2-(8-chloro-9-fluoro-5,5-dioxido-6H-dibenzo[c,e][1,2]thiazin-6-yl)-N-cyclohexylacetamide]",100 nM
6,"O=C(CN1c2cc(Cl)ccc2-c2ccccc2S1(=O)=O)NC1CCCCC1 [SM586, 2-(8-chloro-5,5-dioxido-6H-dibenzo[c,e][1,2]thiazin-6-yl)-N-cyclohexylacetamide]",350 nM

# — patent publication US20240376092A1 (priority 2021, published 2024)
